Test results: a compilation of properties of binary mixtures (doi:10.1016/j.jtice.2024.105468)

Assay: xn = mol fraction of the nth substance listed
Conditions: 100 kPa

CCCC[n+]1ccn(C)c1.[Br-] + COCCO
viscosity [mPa·s]
Conditions	x1 = 0.1002	x1 = 0.1999	x1 = 0.3002	x1 = 0.4	x1 = 0.5	x1 = 0.5999	x1 = 0.7002	x1 = 0.8	x1 = 0.8975	x1 = 1
298.15 K	10	34	74.5	124	179	247	–	527	843	1451
303.15 K	6.65	19.6	41.1	68.9	–	139	192	280	447	837
308.15 K	5.03	13	26.9	–	63.6	86.3	114	162	256	506
313.15 K	3.71	8.79	17.5	–	–	55.5	–	106	167	330

COCCO + CCCC[n+]1ccn(C)c1.[Br-]
x2 = 0
Conditions	viscosity [mPa·s]
298.15 K	1.57
303.15 K	1.5
308.15 K	1.35
313.15 K	1.23
